Where a SMILES comes first, the peptide text is derived from it. Bridges are numbered along the chain shown (N, C = ends). Where no end group is shown, it is not given here.

The target in the first experiment is T1, human PAC1 receptor (Homo sapiens, UniProt P41586).
T1 construct: SHSY-5Y (human neuroblastoma cell line) and RG-2 (rat glioma cell line) cells endogenously express human and rat PAC1 receptors, respectively; endogenous in cells; host or cells: SHSY-5Y human neuroblastoma cells
T1 sequence (P41586 21-468): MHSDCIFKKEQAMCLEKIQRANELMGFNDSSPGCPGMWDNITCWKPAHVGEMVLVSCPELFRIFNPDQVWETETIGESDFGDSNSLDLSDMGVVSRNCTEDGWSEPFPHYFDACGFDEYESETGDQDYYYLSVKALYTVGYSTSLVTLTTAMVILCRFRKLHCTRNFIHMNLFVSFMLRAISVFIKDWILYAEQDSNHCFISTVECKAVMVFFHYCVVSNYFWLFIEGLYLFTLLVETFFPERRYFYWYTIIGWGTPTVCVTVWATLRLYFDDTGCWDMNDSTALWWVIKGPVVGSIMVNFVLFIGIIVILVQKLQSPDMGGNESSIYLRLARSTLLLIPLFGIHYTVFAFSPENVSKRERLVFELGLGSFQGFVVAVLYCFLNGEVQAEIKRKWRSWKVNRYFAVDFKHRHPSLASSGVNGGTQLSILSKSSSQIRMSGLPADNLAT
Nature of the experiment: LANCE Ultra cAMP accumulation antagonist assay in SHSY-5Y cells.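 Note: inhibition of cAMP accumulation evoked by PAC1 agonist at its EC80 in SHSY-5Y cells endogenously expressing receptor, 30 min preincubation then 15 min agonist, TR-FRET readout.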 It counts as cell-based. In general terms: TR-FRET usually uses a lanthanide donor and a delayed reading to cut background.
As a reminder, the IC50 is the midpoint of a concentration-inhibition curve. Read a low IC50 as greater potency. `CC[C@H](C)[C@H](NC(=O)[C@H](C)NC(=O)[C@H](CCCCN)NC(=O)[C@H](CCCNC(=N)N)NC(=O)[C@H](Cc1ccccc1)NC(=O)[C@H](CCC(N)=O)NC(=O)[C@@H]1CSSC[C@H](NC(C)=O)C(=O)N[C@@H](CC(=O)O)C(=O)N[C@@H](C)C(=O)N[C@@H]([C@@H](C)O)C(=O)N1)C(=O)N[C@@H](CC(=O)O)C(=O)N[C@@H](CC(=O)O)C(=O)N[C@H]1CSSC[C@@H](C(=O)N[C@@H](CCSC)C(=O)N[C@@H](CCCCN)C(=O)N[C@@H](CCC(N)=O)C(=O)N[C@@H](CCCCN)C(=O)N[C@@H](CCCCN)C(=O)N[C@@H](CCCCN)C(=O)N[C@@H](CCC(=O)O)C(=O)N[C@@H](Cc2ccccc2)C(=O)N[C@@H](CCCCN)C(=O)N[C@@H](C)C(N)=O)NC(=O)C(C)(C)NC(=O)[C@H](CCCCN)NC(=O)[C@H](Cc2ccccc2)NC(=O)[C@H](C(C)C)NC(=O)[C@H](CO)NC(=O)CNC(=O)[C@@H]2CCCN2C(=O)[C@H](C(C)C)NC(=O)[C@H](CC(N)=O)NC(=O)[C@H](CO)NC(=O)[C@H](Cc2c[nH]cn2)NC(=O)[C@H](Cc2c[nH]cn2)NC(=O)[C@H](C)NC(=O)[C@H](CCC(N)=O)NC(=O)[C@H](CCCCN)NC(=O)[C@H](CCC(N)=O)NC1=O` [SEQ ID NO 249] had an IC50 of 1 to 100 nM.
In turn, `CC[C@H](C)[C@H](NC(=O)[C@H](C)NC(=O)[C@H](CCCCN)NC(=O)[C@H](CCCNC(=N)N)NC(=O)[C@H](Cc1ccccc1)NC(=O)[C@H](CCC(N)=O)NC(=O)[C@@H]1CSSC[C@H](N)C(=O)N[C@@H](CC(=O)O)C(=O)N[C@@H](C)C(=O)N[C@@H]([C@@H](C)O)C(=O)N1)C(=O)N[C@@H](CC(=O)O)C(=O)N[C@@H](CC(=O)O)C(=O)N[C@H]1CSSC[C@@H](C(=O)N[C@@H](CCSC)C(=O)N[C@@H](CCCCN)C(=O)N[C@@H](CCC(N)=O)C(=O)N[C@@H](CCCCN)C(=O)N[C@@H](CCCCN)C(=O)N[C@@H](CCCCN)C(=O)N[C@@H](CCC(=O)O)C(=O)N[C@@H](Cc2ccccc2)C(=O)N[C@@H](CCCCN)C(=O)N[C@@H](C)C(=O)NCC(=O)N[C@@H](CCCCN)C(=O)O)NC(=O)[C@H](CCC(=O)O)NC(=O)[C@H](CCCCN)NC(=O)[C@H](Cc2ccccc2)NC(=O)[C@H](C(C)C)NC(=O)[C@H](CO)NC(=O)[C@H](CC(N)=O)NC(=O)[C@H](CO)NC(=O)[C@H](Cc2c[nH]cn2)NC(=O)[C@H](Cc2c[nH]cn2)NC(=O)[C@H](C)NC(=O)[C@H](CCC(N)=O)NC(=O)[C@H](CCCCN)NC(=O)[C@H](CCC(N)=O)NC1=O` [compound 396] (H-CDATCQFRKAIDDCQKQAHHSNSVFKECMKQKKKEFKAGK-OH; disulfide 1-5, 14-28) had an IC50 of 1 to 100 nM.
As for `CC[C@H](C)[C@H](NC(=O)[C@H](C)NC(=O)[C@H](CCCCN)NC(=O)[C@H](CCCNC(=N)N)NC(=O)[C@H](Cc1ccccc1)NC(=O)[C@H](CCC(N)=O)NC(=O)[C@@H]1CSSC[C@H](N)C(=O)N[C@@H](CC(=O)O)C(=O)N[C@@H](C)C(=O)N[C@@H]([C@@H](C)O)C(=O)N1)C(=O)N[C@@H](CC(=O)O)C(=O)N[C@@H](CC(=O)O)C(=O)N[C@H]1CSSC[C@@H](C(=O)N[C@@H](CCSC)C(=O)N[C@@H](CCCCN)C(=O)N[C@@H](CCC(N)=O)C(=O)N[C@@H](CCCCN)C(N)=O)NC(=O)[C@H](CCC(=O)O)NC(=O)[C@H](CCCCN)NC(=O)[C@H](Cc2ccccc2)NC(=O)[C@H](C(C)C)NC(=O)[C@H](CO)NC(=O)[C@H](CC(N)=O)NC(=O)CNC(=O)[C@@H]2CCCN2C(=O)[C@H](C(C)C)NC(=O)[C@H](CC(N)=O)NC(=O)[C@H](CO)NC(=O)[C@H](Cc2c[nH]cn2)NC(=O)[C@H](Cc2c[nH]cn2)NC(=O)[C@H](C)NC(=O)[C@H](CCC(N)=O)NC(=O)[C@H](CCCCN)NC(=O)[C@H](CCC(N)=O)NC1=O` [compound 413], the IC50 is 1 to 100 nM.
Still for that read-out and setting: next, “CDATCQFRKAIDDCKQQAHHSNVPGNSVFEKCMKQKKKEFKAGK (disulfide 1-5, 14-32) [compound 346]”: > 100 nM.
Same read-out and setting: the figure for “CDATCQFRKAIDDCQKQAHHSNVGNSVFKECMKQKKKEFKAGK (disulfide 1-5, 14-31) [compound 398]” is 1 to 100 nM.
Same read-out and setting: the figure for “CDATCQFRKAIDDCQKQAHHSNVPGNSFKECMKQKKKEFKAGK (disulfide 1-5, 14-31) [compound 363]” is 1 to 100 nM.
Consider “CDATCQFRKAIDDCQKQAHHSNVPGNSVKECMKQKKKEFKAGK (disulfide 1-5, 14-31) [compound 362]”, for which the 50% inhibitory concentration (IC50) is > 100 nM.
“CDATCQFRKAIDDCQKQAHHSNVPGSVFKECMKQKKKEFKAGK (disulfide 1-5, 14-31) [compound 364]” yielded an IC50 of 1 to 100 nM.
“CDATCQFRKAIDDCQKQAHHSNVPNSVFKECMKQKKKEFKAGK (disulfide 1-5, 14-31) [compound 365]” yielded a half-maximal inhibitory concentration (IC50) of 1 to 100 nM.
Still for that read-out and setting: next, “CDATCQFRKAIDDCQKQAHHSNVSVFKECMKQKKKEFKAGK (disulfide 1-5, 14-29) [compound 397]”: 1 to 100 nM.

A further experiment addresses T2, rat PAC1 receptor (Rattus norvegicus, UniProt P32215).
T2 construct: SHSY-5Y (human neuroblastoma cell line) and RG-2 (rat glioma cell line) cells endogenously express human and rat PAC1 receptors, respectively; endogenous in cells; host or cells: RG-2 rat glioma cells
T2 sequence (P32215 20-523): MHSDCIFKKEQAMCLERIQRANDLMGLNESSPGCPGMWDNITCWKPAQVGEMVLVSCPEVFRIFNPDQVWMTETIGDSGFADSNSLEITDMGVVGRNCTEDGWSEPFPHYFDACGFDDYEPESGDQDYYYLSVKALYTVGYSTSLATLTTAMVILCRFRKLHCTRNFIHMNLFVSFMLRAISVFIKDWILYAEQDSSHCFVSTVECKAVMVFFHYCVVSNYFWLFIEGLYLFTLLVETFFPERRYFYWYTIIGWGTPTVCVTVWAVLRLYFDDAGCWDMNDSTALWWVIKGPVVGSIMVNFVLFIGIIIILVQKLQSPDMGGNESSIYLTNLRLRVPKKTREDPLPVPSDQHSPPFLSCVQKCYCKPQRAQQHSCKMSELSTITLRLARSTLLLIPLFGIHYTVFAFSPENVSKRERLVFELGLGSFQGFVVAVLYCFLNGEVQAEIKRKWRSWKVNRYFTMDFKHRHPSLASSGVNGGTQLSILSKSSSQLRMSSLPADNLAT
Nature of the experiment: LANCE Ultra cAMP accumulation antagonist assay in RG-2 cells.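 Note: RG-2 rat glioma cells endogenously expressing PAC1, test peptide preincubated 30 min, then PAC1 agonist added at its EC80 for 15 min, cAMP accumulation read by LANCE Ultra.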 It counts as cell-based.
Regarding `CC[C@H](C)[C@H](NC(=O)[C@H](C)NC(=O)[C@H](CCCCN)NC(=O)[C@H](CCCNC(=N)N)NC(=O)[C@H](Cc1ccccc1)NC(=O)[C@H](CCC(N)=O)NC(=O)[C@@H]1CSSC[C@H](NC(C)=O)C(=O)N[C@@H](CC(=O)O)C(=O)N[C@@H](C)C(=O)N[C@@H]([C@@H](C)O)C(=O)N1)C(=O)N[C@@H](CC(=O)O)C(=O)N[C@@H](CC(=O)O)C(=O)N[C@H]1CSSC[C@@H](C(=O)N[C@@H](CCSC)C(=O)N[C@@H](CCCCN)C(=O)N[C@@H](CCC(N)=O)C(=O)N[C@@H](CCCCN)C(=O)N[C@@H](CCCCN)C(=O)N[C@@H](CCCCN)C(=O)N[C@@H](CCC(=O)O)C(=O)N[C@@H](Cc2ccccc2)C(=O)N[C@@H](CCCCN)C(=O)N[C@@H](C)C(N)=O)NC(=O)C(C)(C)NC(=O)[C@H](CCCCN)NC(=O)[C@H](Cc2ccccc2)NC(=O)[C@H](C(C)C)NC(=O)[C@H](CO)NC(=O)CNC(=O)[C@@H]2CCCN2C(=O)[C@H](C(C)C)NC(=O)[C@H](CC(N)=O)NC(=O)[C@H](CO)NC(=O)[C@H](Cc2c[nH]cn2)NC(=O)[C@H](Cc2c[nH]cn2)NC(=O)[C@H](C)NC(=O)[C@H](CCC(N)=O)NC(=O)[C@H](CCCCN)NC(=O)[C@H](CCC(N)=O)NC1=O` [SEQ ID NO 249], the IC50 was in the range of 0.01 to 1 nM.
Consider “CDATCQFRKAIDDCANKSWHSNVPGSVFKLCMKQKKKEWKAGH-NH2 (disulfide 1-5, 14-31) [compound 445]”, for which the 50% inhibitory concentration (IC50) is > 100 nM.
On the same count and under the same terms, the figure for “CDATCQFRKAIDDCQKQAHHSNVPGSVFKACMKQKKKEFKAGA (disulfide 1-5, 14-31) [compound 175]” is 0.01 to 1 nM.
Regarding “CDATCQFRKAIDDCQKQAHHSNVPGSVFKACMKQKKKEFKAGE (disulfide 1-5, 14-31) [compound 173]”, the IC50 lay within 0.01 to 1 nM.
For “CDATCQFRKAIDDCQKQAHHSNVPGSVFKACMKQKKKEFKAGF (disulfide 1-5, 14-31) [compound 172]”, the IC50 is 0.01 to 1 nM.
With “CDATCQFRKAIDDCQKQAHHSNVPGSVFKACMKQKKKEFKAGGGGS (disulfide 1-5, 14-31) [compound 177]”, the IC50 is 0.01 to 1 nM.
“CDATCQFRKAIDDCQKQAHHSNVPGSVFKACMKQKKKEFKAGH (disulfide 1-5, 14-31) [compound 171]” displayed a 50% inhibitory concentration (IC50) of 0.01 to 1 nM.
As for “CDATCQFRKAIDDCQKQAHHSNVPGSVFKACMKQKKKEFKAGK (disulfide 1-5, 14-31) [compound 182]”, the half-inhibitory concentration (IC50) was in the range of 0.01 to 1 nM.
Consider “CDATCQFRKAIDDCQKQAHHSNVPGSVFKACMKQKKKEFKAGR (disulfide 1-5, 14-31) [compound 170]”, for which the IC50 is 0.01 to 1 nM.
Same read-out and setting: the figure for “CDATCQFRKAIDDCQKQAHHSNVPGSVFKACMKQKKKEFKAGY (disulfide 1-5, 14-31) [compound 164]” is 0.01 to 1 nM.
“CDATCQFRKAIDDCQKQAHHSNVPGSVFKACMKQKKKEFKAN (disulfide 1-5, 14-31) [compound 202]” yielded an IC50 of 0.01 to 1 nM.
In turn, “CDATCQFRKAIDDCQKQAHHSNVPGSVFKACMKQKKKEFKAN-NH2 (disulfide 1-5, 14-31) [compound 205]” yielded an IC50 of 0.01 to 1 nM.
Turning to “CDATCQFRKAIDDCQKQAHHSNVPGSVFKSCMKQKKKEFKAG-NH2 (disulfide 1-5, 14-31) [compound 207]”, the IC50 was in the range of 0.01 to 1 nM.
The same measure, in the same setting: the figure for “CDATCQFRKCIDDWQKQAHHSNVPGSVFKARMKQCKKEFKAG-NH2 (disulfide 1-5, 10-35) [compound 176]” is 1 to 100 nM; for “GSCDATCQFRKAIDDCQKQAHHSNVPGSVFKACMKQKKKEFKAG-NH2 (disulfide 3-7, 16-33) [compound 185]” it is 0.01 to 1 nM.
The same measure, in the same setting: next, “MCDATCQFRKAIDDCQKQAHHSNVPGSVFKACMKQKKKEFKAGHHHHH (disulfide 2-6, 15-32) [compound 199]”: 0.01 to 1 nM; “MCDATCQFRKAIDDCQKQAHHSNVPGSVFKACMKQKKKEFKAGHHHHHH (disulfide 2-6, 15-32) [compound 204]”: 0.01 to 1 nM.

The values are drawn from patent US20210395313A1, “PEPTIDE PAC1 ANTAGONISTS” (AMGEN INC., priority 2017, published 2021).
